From the Kinase Knowledgebase extract (Sharma et al. 2016) come the findings set out here.

What is called IC50 is the concentration needed to halve the response being measured.

Bounds are passed on as bounds.

The target of the first assay is PIK3CA (human) (UniProt P42336). The assay is described as follows: Inhibition of PIK3CA Kinase Activity (Fluorescence Polarization Format Assay).
Sequence of PIK3CA (human) (P42336 whole entry, looked up): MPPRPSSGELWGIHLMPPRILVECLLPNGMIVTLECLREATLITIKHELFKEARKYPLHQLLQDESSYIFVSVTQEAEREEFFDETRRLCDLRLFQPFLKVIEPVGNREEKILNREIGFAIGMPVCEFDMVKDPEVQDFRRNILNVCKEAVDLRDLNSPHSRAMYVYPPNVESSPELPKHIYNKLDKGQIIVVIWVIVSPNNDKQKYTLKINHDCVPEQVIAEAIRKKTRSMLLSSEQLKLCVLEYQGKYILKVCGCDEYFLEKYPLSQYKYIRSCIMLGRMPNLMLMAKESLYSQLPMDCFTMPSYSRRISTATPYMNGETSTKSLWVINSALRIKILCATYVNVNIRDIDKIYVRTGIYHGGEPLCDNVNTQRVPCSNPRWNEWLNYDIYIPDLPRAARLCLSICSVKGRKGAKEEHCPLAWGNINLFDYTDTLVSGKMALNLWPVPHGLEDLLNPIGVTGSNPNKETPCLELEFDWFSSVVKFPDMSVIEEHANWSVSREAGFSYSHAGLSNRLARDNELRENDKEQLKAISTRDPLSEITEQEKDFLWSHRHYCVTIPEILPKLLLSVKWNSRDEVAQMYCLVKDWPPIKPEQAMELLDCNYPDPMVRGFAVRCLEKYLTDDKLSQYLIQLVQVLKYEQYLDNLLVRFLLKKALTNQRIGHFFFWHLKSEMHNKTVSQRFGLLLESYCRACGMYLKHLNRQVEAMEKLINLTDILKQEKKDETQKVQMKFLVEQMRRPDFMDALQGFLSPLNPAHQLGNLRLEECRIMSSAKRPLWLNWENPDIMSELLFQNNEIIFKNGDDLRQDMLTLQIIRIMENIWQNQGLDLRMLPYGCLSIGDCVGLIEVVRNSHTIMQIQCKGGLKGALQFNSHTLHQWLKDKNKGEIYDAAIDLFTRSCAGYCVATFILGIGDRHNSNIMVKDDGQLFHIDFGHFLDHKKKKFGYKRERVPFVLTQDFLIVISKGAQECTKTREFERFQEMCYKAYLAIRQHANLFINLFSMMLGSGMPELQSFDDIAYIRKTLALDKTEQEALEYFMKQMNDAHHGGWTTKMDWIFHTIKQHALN
Settings: not given
On the technique in general: Polarisation of emitted light reports the rotation of a fluorescent probe.
For `Oc1cccc(-c2nc(N3CCOCC3)c3cc[nH]c3n2)c1`, the IC50 was 43 nM. This lies in the double-digit nanomolar range. The same measure, in the same setting: in the case of `Cc1cccc(-c2nc(N3CCOCC3)c3[nH]ccc3n2)c1` it was 1510 nM; in that of `CN(C)CCn1ccc2c(N3CCOCC3)nc(-c3cccc(O)c3)nc21`, 76 nM.

`O=C(Nc1ccncc1)Nc1ccc(-c2nc(N3CCOCC3)c3ccn(CCN4CCCC4)c3n2)cc1`: the IC50 worked out at 30 nM.

For `CCNC(=O)Nc1ccc(-c2nc(N3CCOCC3)c3ccn(CCN(C)C)c3n2)cc1`, the half-maximal inhibitory concentration (IC50) stood at 226 nM.

The target of the next assay is ERBB2;PIK3CA (human) (UniProt P42336). As to the kind of experiment: Inhibition of ERBB2 and PIK3CA Kinase Activity in MDA361 Cells. As to conditions: mda-361.
Sequence of ERBB2;PIK3CA (human) (P42336 whole entry, looked up): as above
`CN(C)CCN(C)C(=O)c1ccc(NC(=O)Nc2ccc(-c3nc(N4CCOCC4)c4ccn(CC(F)(F)F)c4n3)cc2)cc1` registered an IC50 of less than 3 nM.
